The assay has as its system HIV-1 (H9/IIIB strain). Description: microbe, parasite or virus in culture. The note with it: MT4-GFP cells infected with HIV-1 H9/IIIB, inhibition of reproductive ratio R0. Format: cell-based. Here is the method: Assessing Antiviral Potency in a Multiple Round HIV-1 Infection Assay (Viking Assay)
The antiviral activity of the tenofovir prodrugs of the Examples herein was assessed in an assay that measures the rate of replication of HIV in cell culture, termed the Viking assay (Viral KINetics in Green cells) and performed as follows. HIV-1 replication was monitored using MT4-gag-GFP clone D3 (hereafter designated MT4-GFP), which are MT-4 cells modified to harbor a GFP reporter gene, the expression of which is dependent on the HIV-1 expressed proteins tat and rev. Productive infection of an MT4-GFP cell with HIV-1 results in GFP expression approximately 24 h post-infection. MT4-GFP cells were maintained at 37° C./5% CO2/90% relative humidity in RPMI 1640 supplemented with 10% fetal bovine serum, 100 U/ml penicillin/streptomycin, and 400 μg/ml G418 to maintain the reporter gene. For infections, MT4-GFP cells were placed in the same medium lacking G418 and infected overnight with HIV-1 (H9/IIIB strain) virus at an approximate multiplicity of infection of 0.01 in the same incubation conditions. Cells were then washed and re-suspended in either RPMI 1640 supplemented with 10% or 50% normal human serum (NHS) at 1.6×10^5 cells/mL (10% NHS or 50% NHS, respectively). Compound plates were prepared by dispensing compounds dissolved in DMSO into wells of 384 well poly-D-lysine-coated plates (0.2 μl/well) using an ECHO acoustic dispenser. Each compound was tested in a 10-point serial 3-fold dilution (typical final concentrations: 8.4 μM-0.42 nM). Controls included no inhibitor (DMSO only) and a combination of three antiviral agents (efavirenz, indinavir, an in-house integrase strand transfer inhibitor at final concentrations of 4 μM each). Cells were added ([…]) to compound plates and the infected cells were maintained at 37° C./5% CO2/90% relative humidity.
Infected cells were quantified at two time points, ˜48 h and ˜72 h post-infection, by counting the number of green cells in each well using an Acumen eX3 scanner. […] Inhibition of R0 is calculated for each well, and IC50s determined by non-linear 4-parameter curve fitting.

The mark [1] stands for this setting: 10% normal human serum, read-out: Viking, IC50 (10% NHS).
[2] abbreviates: 50% normal human serum, read-out: Viking, IC50 (50% NHS).
Setting [3] is: Human immunodeficiency virus 1, IIIB, 10% normal human serum, read-out: Viking, IC50 (10% NHS).
Where [4] appears, read: Human immunodeficiency virus 1, IIIB, 50% normal human serum, read-out: Viking, IC50 (50% NHS).

Like-named read-outs stand apart in the source and are kept apart here. Some results are limits rather than exact numbers.

As for `CC(C)OC(=O)CCNP(=O)(CO[C@H](C)Cn1cnc2c(N)ncnc21)N[C@@H](C)C(=O)OC(C)C` (single isomer, unassigned) [Example 7B], the IC50 – broadly, the concentration that inhibits the measured activity by half – is 378 nM (Human immunodeficiency virus 1, 10% normal human serum, read-out: Viking, IC50 (10% NHS)) and 393 nM (Human immunodeficiency virus 1, 50% normal human serum, read-out: Viking, IC50 (50% NHS)). For the molecule `CC(C)OC(=O)C[C@H](C)NP(=O)(CO[C@H](C)Cn1cnc2c(N)ncnc21)N[C@@H](C)C(=O)OC(C)C` (single isomer, unassigned) [Example 8B], the IC50 is 439 nM under setting [1] and 531 nM under setting [2].

On to `CC(C)OC(=O)C[C@@H](C)NP(=O)(CO[C@H](C)Cn1cnc2c(N)ncnc21)N[C@@H](C)C(=O)OC(C)C` (single isomer, unassigned) [Example 9B], for which the IC50 by setting is: under setting [1], 378 nM; under setting [2], 800 nM. For `CC(C)OC(=O)[C@H](C)CNP(=O)(CO[C@H](C)Cn1cnc2c(N)ncnc21)N[C@@H](C)C(=O)OC(C)C` (single isomer, unassigned) [Example 10B] the same measures were 435 nM and 908 nM.

Turning to `CC(C)OC(=O)[C@@H](C)CNP(=O)(CO[C@H](C)Cn1cnc2c(N)ncnc21)N[C@@H](C)C(=O)OC1CCCC1` (single isomer, unassigned) [Example 11A], the IC50 is, setting by setting: under setting [3], 21.5 nM; under setting [4], 104 nM.

For the molecule `CC(C)OC(=O)[C@@H](C)CNP(=O)(CO[C@H](C)Cn1cnc2c(N)ncnc21)N[C@@H](C)C(=O)OC1CCC1` (single isomer, unassigned) [Example 12A], the IC50 was 41.7 nM under setting [3] and 119 nM under setting [4].

As to `CC(C)OC(=O)[C@@H](C)CNP(=O)(CO[C@H](C)Cn1cnc2c(N)ncnc21)N[C@@H](C)C(=O)OC1CCCCC1` (single isomer, unassigned) [Example 13B], the IC50 under setting [1] came out at 34.2 nM and the IC50 under setting [2] was determined as 175 nM.

Consider `CCCCOC(=O)[C@H](C)NP(=O)(CO[C@H](C)Cn1cnc2c(N)ncnc21)NC[C@H](C)C(=O)OC(C)C` (single isomer, unassigned) [Example 15A], for which the IC50 was determined as 19.6 nM under setting [3] and 146 nM under setting [4]. Take `CC(C)OC(=O)C[C@H](C)NP(=O)(CO[C@H](C)Cn1cnc2c(N)ncnc21)N[C@H](C)C(=O)OC1CCC1` (single isomer, unassigned) [Example 19B]: the IC50 by setting is: under setting [1], 3790 nM; under setting [2], more than 8400 nM.

Regarding `CC(C)OC(=O)[C@@H](C)CNP(=O)(CO[C@H](C)Cn1cnc2c(N)ncnc21)N[C@H](C)C(=O)OC1CCC1` (single isomer, unassigned) [Example 20A], the half-inhibitory concentration (IC50) reads like this: under setting [1], 859 nM; under setting [2], 4100 nM.

With `CC(C)OC(=O)[C@@H](C)CNP(=O)(CO[C@H](C)Cn1cnc2c(N)ncnc21)N[C@H](C)C(=O)OC1CCCCC1` (single isomer, unassigned) [Example 21A], under setting [1], the IC50 was 1460 nM.

Take `CC(C)OC(=O)[C@@H](C)CNP(=O)(CO[C@H](C)Cn1cnc2c(N)ncnc21)N[C@H](C)C(=O)OC1CCCCC1` (single isomer, unassigned) [Example 21B]: the IC50 worked out at 270 nM under setting [1] and 836 nM under setting [2]. As to `CC(C)OC(=O)[C@@H](C)CNP(=O)(CO[C@H](C)Cn1cnc2c(N)ncnc21)N[C@H](C)C(=O)OC1CCCC1` (single isomer, unassigned) [Example 22A], the IC50 reads like this: under setting [1], 400 nM; under setting [4], 480 nM. With `CC(C)OC(=O)CCNP(=O)(CO[C@H](C)Cn1cnc2c(N)ncnc21)N[C@H](C)C(=O)OC1CCC1` (single isomer, unassigned) [Example 23A], the IC50 under setting [1] is more than 8400 nM and the IC50 under setting [2] was more than 8400 nM. `CCCCCOC(=O)C(C)(C)NP(=O)(CO[C@H](C)Cn1cnc2c(N)ncnc21)N[C@@H](C)CC(=O)OC(C)C` (single isomer, unassigned) [Example 26A]: the half-inhibitory concentration (IC50) reads like this: under setting [1], 23.3 nM; under setting [2], 116 nM. For `CCCCCCOC(=O)C(C)(C)NP(=O)(CO[C@H](C)Cn1cnc2c(N)ncnc21)N[C@@H](CC(=O)OC(C)C)C(C)C` (single isomer, unassigned) [Example 28A] the same measures were 19.1 nM and 58.5 nM.

The record behind these values is US9822138B2, “Antiviral beta-amino acid ester phosphodiamide compounds” (Merck Sharp & Dohme Corp., priority 2015, dated 2017).
